The source made the active and inactive calls. Cut-off read from the data, not from the text of the source, for most assays here: actives have a measured IC50 and inactives only a lower limit.
Experiments:
Type in all cases: functional
[1] = growth suppression of beta-catenin-knockout colon cells, dose response, cell-based, HCT116, human colon tumor (AID 1045);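 note: HCT116 colon tumor cells with beta catenin knocked out; cells exposed to compound for 60 hours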
[2] = biological target: T1, Apoptotic protease-activating factor 1 (Homo sapiens, UniProt O14727)
T1 sequence (O14727 whole entry): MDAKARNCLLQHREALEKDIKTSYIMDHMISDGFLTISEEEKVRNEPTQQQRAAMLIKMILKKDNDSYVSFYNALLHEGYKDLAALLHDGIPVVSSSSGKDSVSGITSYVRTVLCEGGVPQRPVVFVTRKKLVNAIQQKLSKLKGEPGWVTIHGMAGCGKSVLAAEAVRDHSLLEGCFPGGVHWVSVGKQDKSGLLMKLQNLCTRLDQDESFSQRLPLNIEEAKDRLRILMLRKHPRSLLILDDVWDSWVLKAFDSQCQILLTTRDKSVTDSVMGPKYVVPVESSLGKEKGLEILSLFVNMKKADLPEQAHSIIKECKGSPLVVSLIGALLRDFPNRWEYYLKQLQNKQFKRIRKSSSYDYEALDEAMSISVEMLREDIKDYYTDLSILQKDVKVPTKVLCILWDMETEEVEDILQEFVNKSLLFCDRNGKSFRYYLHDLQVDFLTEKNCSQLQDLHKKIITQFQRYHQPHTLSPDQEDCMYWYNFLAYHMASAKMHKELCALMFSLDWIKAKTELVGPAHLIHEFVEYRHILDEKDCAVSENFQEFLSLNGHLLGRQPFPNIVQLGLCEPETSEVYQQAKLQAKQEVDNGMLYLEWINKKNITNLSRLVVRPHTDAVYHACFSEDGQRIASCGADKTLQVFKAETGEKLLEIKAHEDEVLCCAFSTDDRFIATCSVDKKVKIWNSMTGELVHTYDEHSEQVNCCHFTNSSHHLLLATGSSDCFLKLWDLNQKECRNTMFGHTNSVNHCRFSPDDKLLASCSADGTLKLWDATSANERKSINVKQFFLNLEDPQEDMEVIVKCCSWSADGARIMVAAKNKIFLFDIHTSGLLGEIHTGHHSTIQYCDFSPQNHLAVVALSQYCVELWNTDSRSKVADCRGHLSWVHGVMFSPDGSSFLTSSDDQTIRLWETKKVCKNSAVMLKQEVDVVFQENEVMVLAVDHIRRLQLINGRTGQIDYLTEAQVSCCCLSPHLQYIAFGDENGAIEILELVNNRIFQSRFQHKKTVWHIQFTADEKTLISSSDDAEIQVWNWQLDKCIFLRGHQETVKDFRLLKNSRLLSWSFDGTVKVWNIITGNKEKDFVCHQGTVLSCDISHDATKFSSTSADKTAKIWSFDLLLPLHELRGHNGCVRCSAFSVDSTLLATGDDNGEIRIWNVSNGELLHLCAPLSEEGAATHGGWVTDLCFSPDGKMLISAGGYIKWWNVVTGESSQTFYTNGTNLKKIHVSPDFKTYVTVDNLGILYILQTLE

Caspase-3 = biological target: T2, Caspase-3 (Homo sapiens, UniProt P42574); assay: SAR Analysis of small molecule inhibitors of Sentrin-specific proteases (SENPs) using a Caspase-3 Selectivity assay. [Related pubchem assays (depositor defined):AID2540, AID2599, AID434973, AID489001]
T2 sequence (P42574 whole entry): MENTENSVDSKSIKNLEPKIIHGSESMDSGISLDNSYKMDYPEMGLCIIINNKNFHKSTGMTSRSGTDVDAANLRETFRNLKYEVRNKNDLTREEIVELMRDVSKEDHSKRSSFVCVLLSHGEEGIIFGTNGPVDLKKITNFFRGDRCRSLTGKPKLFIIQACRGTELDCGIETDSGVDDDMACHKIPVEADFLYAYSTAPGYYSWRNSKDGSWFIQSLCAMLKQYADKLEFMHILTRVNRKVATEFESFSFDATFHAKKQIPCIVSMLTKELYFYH

[3] = biological target: T3, Sentrin-specific protease 6 (Homo sapiens, UniProt Q9GZR1); assay: SAR Analysis of small molecule inhibitors of Sentrin-specific protease 6 (SENP6) using a Luminescent assay. [Related pubchem assays (depositor defined):AID2582, AID2599]
T3 sequence (Q9GZR1 whole entry): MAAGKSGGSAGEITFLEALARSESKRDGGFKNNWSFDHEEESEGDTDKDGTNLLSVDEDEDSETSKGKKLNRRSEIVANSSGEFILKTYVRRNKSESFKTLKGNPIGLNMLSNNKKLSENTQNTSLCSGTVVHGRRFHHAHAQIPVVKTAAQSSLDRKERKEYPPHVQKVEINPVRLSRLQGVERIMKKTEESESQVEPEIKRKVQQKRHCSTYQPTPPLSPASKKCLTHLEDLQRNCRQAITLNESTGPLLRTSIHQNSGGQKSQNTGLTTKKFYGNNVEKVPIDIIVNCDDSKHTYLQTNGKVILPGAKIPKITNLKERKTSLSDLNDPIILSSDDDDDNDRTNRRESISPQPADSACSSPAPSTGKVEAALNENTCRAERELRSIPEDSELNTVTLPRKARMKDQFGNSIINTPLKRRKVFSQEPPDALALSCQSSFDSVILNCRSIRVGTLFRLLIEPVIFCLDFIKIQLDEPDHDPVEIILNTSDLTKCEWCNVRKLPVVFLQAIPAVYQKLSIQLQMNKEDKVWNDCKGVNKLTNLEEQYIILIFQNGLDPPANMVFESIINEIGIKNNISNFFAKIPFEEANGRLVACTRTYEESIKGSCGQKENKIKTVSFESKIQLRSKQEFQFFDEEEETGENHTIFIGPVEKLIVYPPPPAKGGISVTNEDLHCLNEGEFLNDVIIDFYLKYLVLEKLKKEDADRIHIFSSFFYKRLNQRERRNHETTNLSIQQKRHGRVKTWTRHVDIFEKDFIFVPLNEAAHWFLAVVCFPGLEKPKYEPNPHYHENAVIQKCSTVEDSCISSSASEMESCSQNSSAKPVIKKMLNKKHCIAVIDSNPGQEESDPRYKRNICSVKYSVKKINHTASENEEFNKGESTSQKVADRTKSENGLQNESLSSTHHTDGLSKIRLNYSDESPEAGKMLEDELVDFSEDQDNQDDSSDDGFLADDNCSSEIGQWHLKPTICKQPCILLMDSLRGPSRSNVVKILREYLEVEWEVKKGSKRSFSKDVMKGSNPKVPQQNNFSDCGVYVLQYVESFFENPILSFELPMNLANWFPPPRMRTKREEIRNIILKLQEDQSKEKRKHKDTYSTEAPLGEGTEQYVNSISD

Oc1cccc(/C=N/Nc2cc(N3CCCC3)nc(N3CCCC3)n2)c1
EC50 [1]: 18.8 µM (active) | IC50 [2]: 1.84 µM (active) | IC50 (Caspase-3): > 99 µM (inactive) | IC50 [3]: 20.4 µM (active)
